Laboratory results published in publication PMC3025750 (Journal of medicinal chemistry, 2010).
“Also recorded” adds a separate entry of the source.

Legend:
[1] = test system: TCR-induced activation of the proximal IL-2 promoter (NFAT/AP-1) in Jurkat TAg T cells; experiment: NFAT/AP-1 dual luciferase reporter assay; type: cell-based; settings: for NFAT/AP-1 activation in TCR-stimulated sample compared to DMSO control / NFAT/AP-1 signaling in unstimulated sample: 5 μM compound; for NFAT/AP-1 activation in TCR-stimulated sample compared to DMSO control: 45 min, then OKT3 6 hours; for NFAT/AP-1 activation in TCR-stimulated sample compared to DMSO control / NFAT/AP-1 signaling in unstimulated sample / dose-dependence of TCR-induced NFAT/AP-1 activation: Jurkat TAg T cells; for NFAT/AP-1 signaling in unstimulated sample: no TCR stimulation; for dose-dependence of TCR-induced NFAT/AP-1 activation: dose-response 0.1 to 30 μM
recombinant Lyp = recombinant Lyp (Homo sapiens, UniProt Q9Y2R2); settings: ratio of IC50 values
[2] = test system: Lck-pY394 and pζ-chain phosphorylation in Jurkat TAg T cells; experiment: Immunoblotting of Lyp's substrates Lck-pY394 and pζ-chain after TCR stimulation; type: cell-based; settings: 45 min at 37°C, then TCR stimulation, immunoblot

Sequence of recombinant Lyp (Q9Y2R2 2-309): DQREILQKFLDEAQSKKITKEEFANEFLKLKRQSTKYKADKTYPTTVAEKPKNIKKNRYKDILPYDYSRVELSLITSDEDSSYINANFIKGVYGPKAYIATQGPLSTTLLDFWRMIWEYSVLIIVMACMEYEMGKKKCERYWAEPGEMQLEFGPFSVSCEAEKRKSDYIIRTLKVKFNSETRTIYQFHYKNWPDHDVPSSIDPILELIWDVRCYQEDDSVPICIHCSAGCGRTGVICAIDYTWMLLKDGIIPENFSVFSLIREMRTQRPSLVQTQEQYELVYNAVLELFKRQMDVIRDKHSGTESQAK

| SMILES | NFAT/AP-1 activation in TCR-stimulated sample compared to DMSO control [1] | NFAT/AP-1 signaling in unstimulated sample [1] | improvement of Lyp inhibitory activity over the original compound 478 (recombinant Lyp) | compound concentration at which NFAT/AP-1 activation was augmented [1] | dose-dependence of TCR-induced NFAT/AP-1 activation [1] | concentration at which pTyr levels of Lck-pY394 and pζ-chain were augmented [2] |
| --- | --- | --- | --- | --- | --- | --- |
| Cc1ccc(-c2oc3cc(O)c(C(=O)O)cc3c2-c2cn(CCCC(=O)Nc3ccc(Br)c4ccccc34)nn2)cc1 [Compound 526] | modest | substantially augmented signaling; also recorded: enhanced T cell signaling in a non TCR-mediated manner | 17 fold |  |  |  |
| COc1ccc(-c2oc3cc(O)c(C(=O)O)cc3c2-c2cn(CCCC(=O)Nc3cccc4ccccc34)nn2)cc1 [Compound 584, 6-hydroxy-2-(4-methoxyphenyl)-3-(1-(4-(naphthalen-1-ylamino)-4-oxobutyl)-1H-1,2,3-triazol-4-yl)benzofuran-5-carboxylic acid] | considerable higher NFAT/AP-1 activation |  |  | submicromolar | dose-dependent effect | 3 μM |
| O=C(CCCCn1cc(-c2c(-c3ccccc3)oc3cc(O)c(C(=O)O)cc23)nn1)Nc1cccc2ccccc12 [Compound 496] | considerable higher NFAT/AP-1 activation |  |  |  |  |  |
| COc1ccc2nc(NC(=O)CCCn3cc(-c4c(-c5cccc(C)c5)oc5cc(O)c(C(=O)O)cc45)nn3)sc2c1 [Compound 630, 6-hydroxy-3-(1-(4-(6-methoxybenzo[d]thiazol-2-ylamino)-4-oxobutyl)-1H-1,2,3-triazol-4-yl)-2-m-tolylbenzofuran-5-carboxylic acid] | considerable higher NFAT/AP-1 activation |  |  | ≥ 3 µM | dose-dependent effect | 30 μM |
| COC(=O)c1cc2c(-c3cn(CCCC(=O)Nc4ccc(Cl)c5ccccc45)nn3)c(-c3ccccc3)oc2cc1O [Compound 486, Methyl 3-(1-(4-(4-chloronaphthalen-1-ylamino)-4-oxobutyl)-1H-1,2,3-triazol-4-yl)-6-hydroxy-2-phenylbenzofuran-5-carboxylate] | considerable higher NFAT/AP-1 activation |  |  | submicromolar | dose-dependent effect | 5 μM |
| O=C(CCCn1cc(-c2c(-c3ccccc3)oc3cc(O)c(C(=O)O)cc23)nn1)Nc1ccc(Br)c2ccccc12 [Compound 482] |  | substantially augmented signaling; also recorded: enhanced T cell signaling in a non TCR-mediated manner |  |  |  |  |
| Cc1ccc(-c2oc3cc(O)c(C(=O)O)cc3c2-c2cn(CCCC(=O)Nc3ccc(Cl)c4ccccc34)nn2)cc1 [Compound 525, 3-(1-(4-(4-chloronaphthalen-1-ylamino)-4-oxobutyl)-1H-1,2,3-triazol-4-yl)-6-hydroxy-2-p-tolylbenzofuran-5-carboxylic acid] | considerable higher NFAT/AP-1 activation |  |  | submicromolar | dose-dependent effect | 30 μM |
| O=C(CCn1cc(-c2c(-c3ccccc3)oc3cc(O)c(C(=O)O)cc23)nn1)Nc1cccc2ccccc12 [Compound 495] | considerable higher NFAT/AP-1 activation |  |  |  |  |  |
| Cc1ccc(-c2oc3cc(O)c(C(=O)O)cc3c2-c2cn(CCCC(=O)Nc3cccc4cccnc34)nn2)cc1 [Compound 523] | considerable higher NFAT/AP-1 activation |  |  |  |  |  |
| Cc1ccc(-c2oc3cc(O)c(C(=O)O)cc3c2-c2cn(CCCC(=O)Nc3cccc4ccccc34)nn2)cc1 [Compound 522, 6-hydroxy-3-(1-(4-(naphthalen-1-ylamino)-4-oxobutyl)-1H-1,2,3-triazol-4-yl)-2-p-tolylbenzofuran-5-carboxylic acid] | considerable higher NFAT/AP-1 activation |  |  | submicromolar | dose-dependent effect | 10 μM |
| O=C(CCCn1cc(-c2c(-c3ccccc3)oc3cc(O)c(C(=O)O)cc23)nn1)Nc1cccc2ccccc12 [Compound 478, reference compound] | did not show an effect |  |  |  |  |  |
| Cc1ccc(-c2oc3cc(O)c(C(=O)O)cc3c2-c2cn(CCC(=O)Nc3cccc4ccccc34)nn2)cc1 [Compound 530] | considerable higher NFAT/AP-1 activation |  |  |  |  |  |
